Results: patent US20200325239A1, “Modulation of Aminopeptidase N/CD13 and Rheumatoid Arthritis” (THE REGENTS OF THE UNIVERSITY OF MICHIGAN, priority 2016, published 2020)

Assays:
Assay type in all cases: cell-based, human
RA FLS [1] = test: FLS growth assay (Essen IncuCyte, percent confluence); conditions: antibodies 25 or 50 ng/ml, actinonin 10 μM, bestatin 50 μM, primarily between 24 hours and 120 hours
Method: (§1) FIG. 5. […] FLS were seeded on 96-well plates overnight. An Essen Incucyte system was used for both growth (A) and migration (B) assays. Growth was calculated as the difference in percent confluence from time 0. Migration was measured in a scratch-wound assay using relative wound density. All data are expressed as a ratio to untreated FLS of the same cell line. mean±SEM n≥4 (*p≤0.05).
(§2) RA FLS were seeded on Essen Image Lock 96-well plates (Essen Bioscience, Ann Arbor, Mich.) overnight at either 3,000 cells/well for growth or 30,000 cells/well for migration. For growth, the 20% FBS CMRL media was removed and cells were washed 1× with PBS. 100 μl of medium alone (control) or medium containing anti-CD3 (25 or 50 ng/ml, OKT3, used as a non-reactive isotype control antibody in this experiment), anti-CD13 1D7 or WM15 (Biolegend, San Diego, Calif.) (25 or 50 ng/ml), or CD13 chemical inhibitors actinonin (Sigma-Aldrich, St. Louis, Mo.) or bestatin (Sigma-Aldrich, St. Louis, Mo.) (10 μM and 50 μM, respectively) was added to the wells. Images and confluence data were collected using an Essen IncuCyte (Essen Bioscience, Ann Arbor, Mich.). For the scratch-wound migration assay, wounds were made via the Essen scratch-wound tool in the seeded 96-well plate. Plates were then washed 2× with PBS and medium was added similar to the growth plates. Data were collected and the confluence or relative wound density calculated by the Essen IncuCyte.

RA FLS [2] = test: FLS scratch-wound migration assay (relative wound density); conditions: antibodies 25 or 50 ng/ml; actinonin 10 μM, bestatin 50 μM; primarily from 36 hours to 72 hours
Method: as §1
as §2, with “Plates were then washed 2× with PBS and medium was added similar to the growth plates.” left out

RA FLS [3] = test: CD13 shedding from FLS cultures with protease inhibitors (CD13 ELISA of supernatant and cell lysate); conditions: 48 hours
Method: Fibroblast-like synoviocytes (FLS) were cultured from human synovial tissue obtained at arthroplasty or synovectomy from RA joints by digestion with 1% collagenase and separation through a 7004 cell strainer (16). […] FLS were maintained in Connaught Medical Research Laboratory (CARL) medium (20% fetal bovine serum (FBS), 2 mM L-glutamine, and 1% penicillin/streptomycin), and were used between passages 4 and 10. To avoid the confounding effect of serum CD13, cultures were moved to serum-free Dulbecco's Modified Eagle's medium/F-12 with Peprogrow serum replacement (Peprotech, Rocky Hill, N.J.) before harvesting. Some cultures were treated with protease inhibitors for 48 hours in serum-free medium: pepstatin A (Sigma-Aldrich, St. Louis, Mo.), aprotinin (Sigma-Aldrich, St. Louis, Mo.), leupeptin (Sigma-Aldrich, St. Louis, Mo.), GM6001 InSolution (EMD Millipore, Darmstadt, Germany), or E-64 (Thermo Scientific, Waltham, Mass.).
Cells were lysed in cell lysis buffer (10% NP-40, 10% PMSF, 1% Iodoacetamide, and 0.1% E-64 in TSA) for one hour on ice and spun to remove debris. FLS culture supernatants were concentrated by centrifugation through an Amicon Ultracel 30K filter (EMD Millipore, Darmstadt, Germany).
High-binding ELISA plates were coated with the anti-CD13 monoclonal antibody WM15 (Biolegend, San Diego, Calif.) in 0.1M carbonate buffer pH 9.5 overnight, and then blocked with 1× Animal Free Block (Vector Laboratories, Burlingame, Calif.) overnight. Samples were then applied to the plates either whole or diluted in block with 10 mM EDTA. A standard curve was prepared using recombinant human CD13 (R&D Systems, Minneapolis, Minn.) in block with 10 mM EDTA. 1D7 (i.e., 591.1D7.34, University of Michigan Hybridoma Core), an anti-CD13 monoclonal antibody that was recently described (10), was biotinylated (Biotin-XX Microscale Protein Labeling Kit, Life Technologies, Carlsbad, Calif.) and applied overnight (19). Streptavidin-HRP (Biolegend, San Diego, Calif.) was then added. Between steps, plates were washed with PBS plus 0.05% Tween. The plates were visualized with TMB substrate (BD Biosciences, San Jose, Calif.), stopped with 2M H2SO4, and analyzed on a colorimetric plate reader.
To test this mechanism, various protease inhibitors were added to FLS cultures, including: pepstatin A (aspartic), aprotinin (serine), leupeptin (serine/cysteine), GM6001 (metalloproteinase), and E-64 (cysteine). […] All inhibitors were used at established working concentrations.

FLS = test: CD13 release and cellular CD13 after siRNA knockdown with or without GM6001 (CD13 ELISA); conditions: 25 μM GM6001, 48 hours
Method: FLS were grown to confluence, then transfected with siRNA using an Amaxa nucleofector kit. Cells were grown to 75% confluence, then switched to serum-free growth media (Peprogrow) supplemented with 1 ng/ml IL-1 and 10 ng/ml TNFα for 48 hours with or without 25 μM GM6001.
High-binding ELISA plates were coated with the anti-CD13 monoclonal antibody WM15 (Biolegend, San Diego, Calif.) in 0.1M carbonate buffer pH 9.5 overnight, and then blocked with 1× Animal Free Block (Vector Laboratories, Burlingame, Calif.) overnight. Samples were then applied to the plates either whole or diluted in block with 10 mM EDTA. A standard curve was prepared using recombinant human CD13 (R&D Systems, Minneapolis, Minn.) in block with 10 mM EDTA. […] The plates were visualized with TMB substrate (BD Biosciences, San Jose, Calif.), stopped with 2M H2SO4, and analyzed on a colorimetric plate reader.
FLS were transfected by electroporation using an Amaxa Nucleofector and the nucleofector kit for dermal fibroblasts (NHDF, Lonza, Basel, Switzerland). […] Transfection of GFP control plasmid was measured by fluorescent microscopy (EVOSfl, AMG, Mill Creek, Wash.) and flow cytometry (BD Biosciences FACSCalibur, San Jose, Calif.). Knockdown efficiency was measured by qRT-PCR of MMP14 mRNA at the time of harvest for CD13 measurements. […]

CD13 mRNA = test: Regulation of CD13 mRNA in RA FLS by cytokines (qRT-PCR); conditions: time course 0 to 72 hours; for CD13 mRNA in RA FLS, ratio to untreated FLS (in words): IFNγ 1000 U/ml, TNFα 10 ng/ml, IL-17 10 ng/ml
Method: FIG. 4. […] FLS were stimulated over a time course of 0-72 hours with IFNγ (1000 U/ml), TNFα (10 ng/ml), or IL-17 (10 ng/ml). Cells were harvested and processed for either mRNA (A), surface expression (B), total cell lysate CD13 (C), or total CD13 in supernatant (D). mRNA was measured by qRT-PCR. CD13 was measured on the surface with anti-CD13 (1D7) and flow cytometry. Cell lysate and supernatant CD13 concentrations were measured by CD13 ELISA. Gating was done to isolate the major cell population and exclude debris and dead cells. Data is expressed as a ratio to unstimulated FLS at the same time point in either ΔΔCt normalized to GAPD (mRNA), mean fluorescent intensity corrected for background florescence with MsIg staining (surface), or CD13 concentration in lysate or supernatant. A n=3 B-D n=1 *p≤0.05.
All procedures involving specimens obtained from human subjects were performed under a protocol approved by the University of Michigan Institutional Review Board. Fibroblast-like synoviocytes (FLS) were cultured from human synovial tissue obtained at arthroplasty or synovectomy from RA joints by digestion with 1% collagenase and separation through a […] (16). FLS were uniformly positive for the FLS marker Cadherin-11. The diagnosis of RA required at least four of the seven 1987 American College of Rheumatology criteria (17). FLS were maintained in Connaught Medical Research Laboratory ([…]) medium (20% fetal bovine serum (FBS), 2 mM L-glutamine, and 1% penicillin/streptomycin), and were used between passages 4 and 10. To avoid the confounding effect of serum CD13, cultures were moved to serum-free Dulbecco's Modified Eagle's medium/F-12 with Peprogrow serum replacement (Peprotech, Rocky Hill, N.J.) before harvesting. Some cultures were treated with protease inhibitors for 48 hours in serum-free medium: pepstatin A (Sigma-Aldrich, St. Louis, Mo.), aprotinin (Sigma-Aldrich, St. Louis, Mo.), leupeptin (Sigma-Aldrich, St. Louis, Mo.), GM6001 InSolution (EMD Millipore, Darmstadt, Germany), or E-64 (Thermo Scientific, Waltham, Mass.). Other cultures were treated with cytokines: recombinant human interferon-γ (rhIFNγ, […]), recombinant human tumor necrosis factor-α (rhTNFα, 10 ng/ml), or recombinant human interleukin-17 (rhIL-17,10 ng/ml) (Peprotech, Rocky Hill, N.J.) for 0, 0.5, 1, 2, 6, 8, 12, 24, 48, or 72 hours in serum-free medium.
mRNA was isolated from FLS (3 wells of a 6-well plate) using the RNAeasy Kit and Qiacube (Qiagen, Venlo, Netherlands). cDNA was prepared using a High Capacity cDNA Kit (Life Technologies, Carlsbad, Calif.). Quantitative reverse transcription polymerase chain reaction (qRT-PCR) was done using TaqMan Gene Expression Assays on a 7500 Real Time PCR System (Life Technologies, Carlsbad, Calif.).
CD13 is present at much higher levels in RA synovial fluid compared to OA. Cultured RA and OA FLS, however, expressed similar amounts of CD13 (10). One possible explanation for this observation is that the pro-inflammatory cytokines in the RA joint could contribute to upregulation of CD13 production by FLS. Cultured RA FLS were treated with IFNγ, TNFα, or IL-17 over a time course from 0 to 72 hours. […] Data shown are a ratio of cytokine-treated FLS CD13 mRNA to untreated FLS CD13 mRNA at the same time point.

RA FLS [4] = test: ELISA for the secretion of CD13 from RA FLS incubated with TIMPs; conditions: 0.6 μg/ml, 48 hours, FLS from 3 RA patients
Method: To determine the role of tissue inhibitors of metalloproteinases (TIMPs) in the secretion of CD13, RA FLS (10 aliquots of 10^5, or 10^6, cells) were plated in 6-well plates in RPMI with 10% FBS. When RA FLS became 85% confluent, media was switched to RPMI containing 0.1% FBS. RA FLS were incubated with TIMP-1, TIMP-2 or both for 48 hours. ELISA was performed to determine the levels of soluble CD13 in the conditioned media. Conditioned media (100 μl/well) was added to 96-well plates (Thermo Scientific, USA) for 2 hours at room temperature. After blocking, anti-CD13 antibody, WM15, (10 μg/ml, BioLegend) was added for 2 hours at 37° C. Anti-mouse IgG HRP-linked antibody (1:1000) was added for 1 hour. After adding the TMB substrate solution (BD Biosciences) and stop solution (2N H2SO4), the optical density (OD) was measured at 450 nm by a microplate reader (BIO-TEK, USA). We used FLS from three different RA patients. Both inhibitors were used at 0.6 μg/ml. These concentrations are recommended by the manufacture to inhibit matrix metalloproteinases (MMPs).

With CC(C)C[C@H](NC(=O)[C@@H](O)[C@H](N)Cc1ccccc1)C(=O)O [Bestatin, bestatin] the “RA FLS cell growth (change in confluence, ratio to untreated FLS)” value (RA FLS [1]) was “significant slowing of cell growth” and the “RA FLS migration in wound healing assay (relative wound density, ratio to untreated)” value (RA FLS [2]) was “not found to inhibit FLS migration”.
CNC(=O)[C@H](Cc1c[nH]c2ccccc12)NC(=O)[C@@H](CC(=O)NO)CC(C)C [GM6001] was tested, and the “CD13 in FLS cell lysates (change, in words)” value (RA FLS [3]; FLS cultures, serum-free media with protease inhibitor) was “No significant difference”, the “reduction of CD13 protein found in the supernatant” value (RA FLS [3]; FLS cultures, serum-free media, GM6001 25 μM, CD13 ELISA) was 93.62±4.78% and the “block of CD13 release from FLS (in words)” value (RA FLS [3]; protease inhibitors at established working concentrations) was “found to block CD13 release”. For the same compound, the “CD13 in lysates of GM6001-treated cells” value (FLS) was “significantly increased” and the “release of CD13 into the culture supernatant (in words)” value (FLS; serum-free media with 1 ng/ml IL-1 and 10 ng/ml TNFα) was “prevented the release of CD13”.
CC(=O)N[C@@H](CC(C)C)C(=O)N[C@@H](CC(C)C)C(=O)N[C@H](C=O)CCCNC(=N)N [Leupeptin, leupeptin] was tested, and the “increase in CD13 released” value (RA FLS [3]; FLS cultures, serum-free media, Leupeptin 10 μM, supernatant) was 48.40±14.29%.
CCCCC[C@H](CC(=O)NO)C(=O)N[C@H](C(=O)N1CCC[C@H]1CO)C(C)C [actinonin] was tested, and the “RA FLS cell growth (change in confluence, ratio to untreated FLS)” value (RA FLS [1]) was “strongest inhibitor of cell proliferation”, the “RA FLS cell growth (change in confluence, ratio to untreated FLS)” value (RA FLS [1]; listed as Actinonin) was “significant slowing of cell growth” and the “RA FLS migration in wound healing assay (relative wound density, ratio to untreated)” value (RA FLS [2]) was “significant decrease”.
In the case of aprotinin, the “increase in CD13 expression in FLS cell lysates” value (RA FLS [3]; Aprotinin 100 nM) was 22.17±6.18%.
recombinant human interferon-γ [IFNγ] was tested, and the “CD13 mRNA in RA FLS, ratio to untreated FLS (in words)” value (from here on “CD13 mRNA in RA FLS, ratio”) (CD13 mRNA) was “upregulated” and the “time of peak CD13 mRNA expression” value (CD13 mRNA) was “around 48 hours”.
With “recombinant human interleukin-17 [IL-17]” the “CD13 mRNA in RA FLS, ratio” value (CD13 mRNA) was “upregulated” and the “time of peak CD13 mRNA expression” value (CD13 mRNA) was “around 48 hours”.
In the case of “recombinant human tumor necrosis factor-α [TNFα]”, the “CD13 mRNA in RA FLS, ratio” value (CD13 mRNA) was “upregulated” and the “time of peak CD13 mRNA expression” value (CD13 mRNA) was “around 48 hours”.
In the case of “tissue inhibitor of metalloproteinase 1 [TIMP-1]”, the “CD13 secretion in conditioned media (OD, ELISA)” value (RA FLS [4]) was “decrease was not observed”.
For “tissue inhibitor of metalloproteinase 2 [TIMP-2]”, the “CD13 secretion in conditioned media (OD, ELISA)” value (RA FLS [4]) was “significant decrease”.
